Experiments:
Format in all cases: in vivo
Italian ryegrass [1] = test: Test Example 3: herbicidal effects in soil treatment; settings: dose 3.2 g/a
Procedure, shortened: (§1)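 Seeds were sown in sterilized diluvial soil and covered with about 1.5 cm of soil. Compounds, formulated as emulsifiable concentrates and diluted with water, were sprayed evenly over the soil surface at set doses in g/a. Herbicidal effect was scored on a rating scale three weeks later.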

posumbu knotweed [2] = test: as above; settings: dose 3.2 g/a
Procedure, shortened: as §1

common lambsquater [3] = test: as above; settings: dose 3.2 g/a
Procedure, shortened: as §1

common ragweed [4] = test: as above; settings: dose 3.2 g/a
Procedure, shortened: as §1

giant foxtail [5] = test: as above; settings: dose 3.2 g/a
Procedure, shortened: as §1

water foxtail [6] = test: as above; settings: dose 3.2 g/a
Procedure, shortened: as §1

velvetleaf [7] = test: as above; settings: dose 3.2 g/a
Procedure, shortened: as §1

barnyardgrass [8] = test: as above; settings: dose 3.2 g/a
Procedure, shortened: as §1

redroot pigweed [9] = test: as above; settings: dose 3.2 g/a
Procedure, shortened: as §1

large crabgrass [10] = test: as above; settings: dose 3.2 g/a
Procedure, shortened: as §1

common chickweed [11] = test: as above; settings: dose 3.2 g/a
Procedure, shortened: as §1

bulrush [12] = test: Test Example 1: herbicidal effects in preemergence treatment under submerged conditions; settings: dose 2.52 g/a
Procedure, shortened: (§2)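 Alluvial soil was flooded to 4 cm, sown with barnyardgrass, bulrush and ducksalad, and planted with 2.5-leaf rice seedlings. On the seeding day, water-diluted emulsifiable concentrates were applied to the water surface at set doses (g/a). After three weeks in a 25 to 30° C. greenhouse, mortality was scored 0–5.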

ducksalad [13] = test: as above; settings: dose 2.52 g/a
Procedure, shortened: as §2

barnyardgrass [14] = test: as above; settings: dose 2.52 g/a
Procedure, shortened: as §2

transplanted rice = test: Test Example 1: preemergence treatment under submerged conditions, effect on crop; settings: dose 2.52 g/a
Procedure, shortened: as §2

Italian ryegrass [15] = test: Test Example 4: herbicidal effect in foliage treatment; settings: dose 3.2 g/a, three weeks after application
Procedure, shortened: (§3)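 Foliar spray, post-emergence: 14-day-old greenhouse plants (25–30° C, diluvial soil) treated with water-diluted EC at set g/a doses; visual herbicidal score at 3 wk post-application.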

posumbu knotweed [16] = test: as above; settings: dose 3.2 g/a, three weeks after application
Procedure, shortened: as §3

common lambsquater [17] = test: as above; settings: dose 3.2 g/a, three weeks after application
Procedure, shortened: as §3

common ragweed [18] = test: as above; settings: dose 3.2 g/a, three weeks after application
Procedure, shortened: as §3

giant foxtail [19] = test: as above; settings: dose 3.2 g/a, three weeks after application
Procedure, shortened: as §3

water foxtail [20] = test: as above; settings: dose 3.2 g/a, three weeks after application
Procedure, shortened: as §3

velvetleaf [21] = test: as above; settings: dose 3.2 g/a, three weeks after application
Procedure, shortened: as §3

barnyardgrass [22] = test: as above; settings: dose 3.2 g/a, three weeks after application
Procedure, shortened: as §3

redroot pigweed [23] = test: as above; settings: dose 3.2 g/a, three weeks after application
Procedure, shortened: as §3

beadstraw = test: as above; settings: dose 3.2 g/a, three weeks after application
Procedure, shortened: as §3

large crabgrass [24] = test: as above; settings: dose 3.2 g/a, three weeks after application
Procedure, shortened: as §3

common chickweed [25] = test: as above; settings: dose 3.2 g/a, three weeks after application
Procedure, shortened: as §3

bulrush [26] = test: Test Example 2: herbicidal effects during the vegetation period under submerged conditions; settings: treatment during the vegetation period under submerged conditions; dose 2.52 g/a
Procedure, shortened: (§4)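 Barnyardgrass, bulrush and ducksalad were co-sown in alluvial soil flooded to 4 cm and grown in a greenhouse at 25 to 30° C. At the 1- or 2-leaf stage, water-diluted emulsifiable concentrates went onto the water surface at set doses (g/a). Herbicidal effect was scored three weeks later on a graded scale.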

ducksalad [27] = test: as above; settings: treatment during the vegetation period under submerged conditions; dose 2.52 g/a
Procedure, shortened: as §4

barnyardgrass [28] = test: as above; settings: treatment during the vegetation period under submerged conditions; dose 2.52 g/a
Procedure, shortened: as §4

Compound | H: Italian ryegrass, herbicidal effect (evaluation scale 0-5) (Italian ryegrass [1]) | M: posumbu knotweed, herbicidal effect (evaluation scale 0-5) (posumbu knotweed [2]) | L: common lambsquater, herbicidal effect (evaluation scale 0-5) (common lambsquater [3]) | J: common ragweed, herbicidal effect (evaluation scale 0-5) (common ragweed [4]) | E: giant foxtail, herbicidal effect (evaluation scale 0-5) (giant foxtail [5]) | G: water foxtail, herbicidal effect (evaluation scale 0-5) (water foxtail [6]) | I: velvetleaf, herbicidal effect (evaluation scale 0-5) (velvetleaf [7]) | A: barnyardgrass, herbicidal effect (evaluation scale 0-5) (barnyardgrass [8]) | K: redroot pigweed, herbicidal effect (evaluation scale 0-5) (redroot pigweed [9]) | D: large crabgrass, herbicidal effect (evaluation scale 0-5) (large crabgrass [10]) | B: bulrush, herbicidal effect (evaluation scale 0-5) (bulrush [12]) | C: ducksalad, herbicidal effect (evaluation scale 0-5) (ducksalad [13]) | A: barnyardgrass, herbicidal effect (evaluation scale 0-5) (barnyardgrass [14]) | a: transplanted rice, effect on crop (evaluation scale 0-5) (transplanted rice) | H: Italian ryegrass, herbicidal effect (Italian ryegrass [15]) | M: posumbu knotweed, herbicidal effect (posumbu knotweed [16]) | L: common lambsquater, herbicidal effect (common lambsquater [17]) | J: common ragweed, herbicidal effect (common ragweed [18]) | E: giant foxtail, herbicidal effect (giant foxtail [19]) | G: water foxtail, herbicidal effect (water foxtail [20]) | also measured
CCOC(=O)N(c1ccccc1CN1COC(C)(C)C(Br)C1=O)S(=O)(=O)C(F)(F)F (centres unmarked) [II-39, 5-bromo-6,6-dimethyl-3-[2-(N-ethoxylcarbonyl-N-trifluoromethanesulfonyl)aminobenzyl]-1,3-oxazinan-4-one] | 5 (mortality of 90% or above (nearly complete death)) | 5 (mortality of 90% or above (nearly complete death)) | 5 (mortality of 90% or above (nearly complete death)) | 4 (mortality of at least 70% and less than 90%) | 5 (mortality of 90% or above (nearly complete death)) | 5 (mortality of 90% or above (nearly complete death)) | 5 (mortality of 90% or above (nearly complete death)) | 5 (mortality of 90% or above (nearly complete death)) | 1 (mortality of at least 5% and less than 20%) | 5 (mortality of 90% or above (nearly complete death)) | 5 (mortality of 90% or above (nearly complete death)) | 5 (mortality of 90% or above (nearly complete death)) | 5 (mortality of 90% or above (nearly complete death)) | 0 (mortality of less than 5% (almost ineffective)) | 3 (mortality of at least 40% and less than 70%) | 3 (mortality of at least 40% and less than 70%) | 3 (mortality of at least 40% and less than 70%) | 5 (mortality of 90% or above (nearly complete death)) | 5 (mortality of 90% or above (nearly complete death)) | 5 (mortality of 90% or above (nearly complete death)) | N: common chickweed, herbicidal effect (evaluation scale 0-5) (common chickweed [11]): 5 (mortality of 90% or above (nearly complete death)); I: velvetleaf, herbicidal effect (velvetleaf [21]): 5 (mortality of 90% or above (nearly complete death)); A: barnyardgrass, herbicidal effect (barnyardgrass [22]): 5 (mortality of 90% or above (nearly complete death)); K: redroot pigweed, herbicidal effect (redroot pigweed [23]): 4 (mortality of at least 70% and less than 90%); O: beadstraw, herbicidal effect (beadstraw): 4 (mortality of at least 70% and less than 90%); D: large crabgrass, herbicidal effect (large crabgrass [24]): 4 (mortality of at least 70% and less than 90%); N: common chickweed, herbicidal effect (common chickweed [25]): 4 (mortality of at least 70% and less than 90%); B: bulrush, herbicidal effect (evaluation scale 0-5) (bulrush [26]): 5 (mortality of 90% or above (nearly complete death)); C: ducksalad, herbicidal effect (evaluation scale 0-5) (ducksalad [27]): 5 (mortality of 90% or above (nearly complete death)); A: barnyardgrass, herbicidal effect (evaluation scale 0-5) (barnyardgrass [28]): 5 (mortality of 90% or above (nearly complete death))
CCC(=O)N(c1ccccc1CN1COC(C)(C(F)(F)F)CC1=O)S(=O)(=O)C(F)(F)F (centres unmarked) [II-47] | 3 (mortality of at least 40% and less than 70%) | 3 (mortality of at least 40% and less than 70%) | 3 (mortality of at least 40% and less than 70%) | 4 (mortality of at least 70% and less than 90%) | 4 (mortality of at least 70% and less than 90%) | 5 (mortality of 90% or above (nearly complete death)) | 4 (mortality of at least 70% and less than 90%) | 5 (mortality of 90% or above (nearly complete death)) | 0 (mortality of less than 5% (almost ineffective)) | 5 (mortality of 90% or above (nearly complete death)) | 5 (mortality of 90% or above (nearly complete death)) | 5 (mortality of 90% or above (nearly complete death)) | 5 (mortality of 90% or above (nearly complete death)) | 0 (mortality of less than 5% (almost ineffective)) | 0 (mortality of less than 5% (almost ineffective)) | 2 (mortality of at least 20% and less than 40%) | 0 (mortality of less than 5% (almost ineffective)) | 2 (mortality of at least 20% and less than 40%) | 2 (mortality of at least 20% and less than 40%) | 2 (mortality of at least 20% and less than 40%) | I: velvetleaf, herbicidal effect (velvetleaf [21]): 4 (mortality of at least 70% and less than 90%); A: barnyardgrass, herbicidal effect (barnyardgrass [22]): 4 (mortality of at least 70% and less than 90%); K: redroot pigweed, herbicidal effect (redroot pigweed [23]): 0 (mortality of less than 5% (almost ineffective)); O: beadstraw, herbicidal effect (beadstraw): 4 (mortality of at least 70% and less than 90%); D: large crabgrass, herbicidal effect (large crabgrass [24]): 1 (mortality of at least 5% and less than 20%); N: common chickweed, herbicidal effect (common chickweed [25]): 3 (mortality of at least 40% and less than 70%); B: bulrush, herbicidal effect (evaluation scale 0-5) (bulrush [26]): 5 (mortality of 90% or above (nearly complete death)); C: ducksalad, herbicidal effect (evaluation scale 0-5) (ducksalad [27]): 5 (mortality of 90% or above (nearly complete death)); A: barnyardgrass, herbicidal effect (evaluation scale 0-5) (barnyardgrass [28]): 4 (mortality of at least 70% and less than 90%)

Source: US20120029187A1, “HALOALKYLSULFONANILIDE DERIVATIVE” (Nissan Chemical Industries, Ltd., priority 2009, published 2012)
